Key:
[1] = system: BGG-specific IgE in a serum; assay: Suppressive effect on the antibody production against bovine γ globulin (BGG), sandwich ELISA; format: in vivo, BALB/c mice; settings: 50 mg/kg p.o. every day, serum after 21 days
Protocol: Experiment 3 Suppressive Effect on the Antibody Production Against Bovine γ Globulin (BGG)
On an immunizing day and 7 days after, 50 μg of BGG was subcutaneously inoculated to backs of BALB/c mice (male, 6-8 weeks old) for inducing an immune reaction. After the compound of the present invention was dissolved or suspended in N, N-dimethylacetoamide, the mixture was diluted with miglyol 812 neutral oil. A proper volume of the compound was orally administered (p.o.) to mice every day from the next day of the immunizing. A two hundredth weight to body weight of miglyol was administered to mice in a control group. After 21 days, blood was drawn from each mouse and a serum was separated. BGG-specific IgE in a serum was measured by the sandwich ELISA method using a BGG-coating plate. The suppressive rate of IgE production was calculated from the dilution rate of the serum which has the same absorption intensity as that of the control group for judging the effect of the compound of the present invention.

[2] = system: IgE production of mouse spleen lymphocytes (lipopolysaccharide, IL-4); assay: Suppressive effect on antibody production of mouse spleen lymphocytes: IgE; format: cell-based, BALB/c (nu/nu) mice; settings: Lymphocyte, 240 h, LPS + IL-4, 10 days
Protocol: (§1) Experiment 6 Suppressive Effect on Antibody Production of Mouse Spleen Lymphocytes 1. Experimental Method 1) Animals
(§2) BALB/c (nu/nu) mice were bought from Japan SLC, Inc. (Shizuoka) and 7 weeks old-male mice were used.
(§3) RPMI medium (Nissui Pharmaceutical Co., Ltd.) containing 10% fetal bovine serum (HyClone Lab.) inactivated at 56° C. for 30 minutes, penicillin (100 units/ml) and streptomycin (100 μg/ml) (GIBCO) was used for experiments.
(§4) Each of the compounds was dissolved in dimethylsulfoxide (Nakaraitesk) at […] and diluted with the medium to adjust a final concentration to 0.1 μg/ml −10 μg/ml.
4) Mouse Spleen Lymphocytes
A spleen of mouse was taken out and put in a cultivating schale which was filled with Hanks' solution. The spleen was crushed and the cells were pushed out from the organ and filtered through a metal mesh (200 mesh). After the collected cell suspension was washed by centrifugation with sterile Hanks' solution (Nissui Pharmaceutical Co., Ltd.), sterile distilled water was added. […]
(§5) In 96-well cultivating plate (Sumitomo Bakelite Company Limited) mouse spleen lymphocytes were inoculated 2×10^5 cells per well. […] After the cultivation for 10 days, the amount of the antibody in a supernatant was quantified by ELISA method.
6) Quantification of the IgE Antibody
A commercial mouse IgE EIA kit (Yamasa Shoyu Co., Ltd.) was used for the quantification of the IgE. […]

[3] = system: IgG1 production of mouse spleen lymphocytes; assay: Suppressive effect on antibody production of mouse spleen lymphocytes: IgG1; format: cell-based, BALB/c (nu/nu) mice; settings: Lymphocyte, 240 h, LPS + IL-4, 10 days
Protocol: as §1, §2, §3, §4
4) Mouse Spleen Lymphocytes […]
as §5
7) Quantification of the IgG1, IgG2a and IgM Antibodies
In 96-well plate 50 μl of 10 μg/ml Goat Anti-Mouse Ig (IgM+G+A, H+ L) (Southern Biotechnology, Birmingham) was added and the plate was coated at 4° C. overnight. […] After washing three times with PBST, 100 μl of culture supernatant which was diluted with PBS or 100 μl of an antibody standard solution (Mouse IgG1 standard, Mouse IgG2a standard, Mouse IgM standard, BETHYL Laboratories) of a pre-determined concentration was added and incubated for 1 hour. […]

[4] = system: inflammatory cells in BAL solution of OVA-sensitized mice; assay: Suppressive effect on bronchial inflammatory cell infiltration by inhalation of antigen (BAL cell counts); format: in vivo, BALB/c mice; settings: 40 mg/kg orally for 9 days, BAL 48 hours after challenge, FIG. 4
Protocol: Experiment 7 Suppressive Effect on Bronchial Inflammatory Cell Infiltration by Inhalation of Antigen • 1. Experimental Method • 1) Animals
BALB/c mice bought from Japan SLC, Inc. (Shizuoka) (female, 8-11 weeks old) were used for experiments.
2) Sensitizing and Challenge of Antigen
For immunizing, 0.2 ml of a suspension of 2 μg of ovalbumin (OVA; Grade V, SIGMA) and 2 mg of aluminium hydroxide gel in physiological saline was intraperitoneally injected. After 2 weeks, 0.2 ml of a solution of 2 μg of OVA in physiological saline was intraperitoneally injected for a booster. […]
After calculation of the total cell number by coloring of a part of BAL solution with Türk solution, cells in BAL solution were put on a slide glass with cytospin (SHANDON) for May-Grünwald-Giemsa (MERCK) staining. Under a microscope, 500 cells were classified to a macrophage, an eosinophil, a neutrophil and a lymphocyte and a proportion of each type of the cells was calculated. The number of each type of the cells was calculated by a multiplication of its proportion and the total cell number.

Cc1cc(-c2ccc(OCC=C(Cl)Cl)c(F)c2)c(C)cc1-c1ccc(O)cc1 [Compound I-963]
Suppressive rate of antigen-specific IgE [1]: >99%
IC50 [2]: 0.00026 ng/mL
IC50 [3]: 510 ng/mL
increasing number of eosinophils by the challenge of antigen [4]: significantly suppresses
increasing number of neutrophils by the challenge of antigen [4]: significantly suppresses
melting point: 93 to 94 °C

Reference: patent publication US7101915B1, “P-terphenyl compounds” (Shionogi & Co., Ltd., priority 1996, dated 2006)
